Source: PubChem BioAssay AID256 (DTP/NCI, 2004)
Values joined by “and” are separate entries in the source; they are usually repeats but may differ in a detail not shown here. Equal entries are not always repeated. Inconclusive results and toxic doses are left out.

Tested on: CD2F1 mice, L1210 leukemia ip, survival T/C
Assay: NCI In Vivo Anticancer Drug Screen. Data for tumor model L1210 Leukemia (intraperitoneal) in CD2F1 (CDF1) mice
Conditions: higher = longer survival
In short: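 Transplantable tumor in mice; compound-treated vs vehicle-treated groups. Read-out = treated/control ratio of the measured endpoint.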

[1] = endpoint: mean survival time, dose: 100.0 mg/kg/injection, schedule: Q01DX001 (ip), vehicle: other
[2] = endpoint: mean survival time, dose: 200.0 mg/kg/injection, schedule: Q01DX001 (ip), vehicle: other
[3] = endpoint: mean survival time, dose: 50.0 mg/kg/injection, schedule: Q01DX009 (ip), vehicle: saline with Tween-80
[4] = endpoint: mean survival time, dose: 100.0 mg/kg/injection, schedule: Q01DX009 (ip), vehicle: saline with Tween-80
[5] = endpoint: mean survival time, dose: 200.0 mg/kg/injection, schedule: Q01DX009 (ip), vehicle: saline with Tween-80
[6] = endpoint: mean survival time, dose: 400.0 mg/kg/injection, schedule: Q01DX009 (ip), vehicle: saline with Tween-80

In the case of `O=P(Oc1ccc(OP(=O)(N2CC2)N2CC2)cc1)(N1CC1)N1CC1`, the T/C (endpoint: mean survival time, dose: 58.0 mg/kg/injection, schedule: Q01DX001 (ip), vehicle: saline) is reported as 119 % of control, the T/C (endpoint: mean survival time, dose: 133.0 mg/kg/injection, schedule: Q01DX001 (ip), vehicle: saline) is reported as 152 % of control and the T/C (endpoint: mean survival time, dose: 200.0 mg/kg/injection, schedule: Q01DX001 (ip), vehicle: saline) is reported as 179 % of control. For the same compound, the T/C (endpoint: mean survival time, dose: 300.0 mg/kg/injection, schedule: Q01DX001 (ip), vehicle: saline) was 89 % of control.
With `c1cc2c(c(CC3CO3)c1CC1CO1)OCCOCCOCCOCCO2` (stereo not drawn) the T/C (endpoint: median survival time, dose: 12.5 mg/kg/injection, schedule: Q01DX009 (ip), vehicle: saline + alcohol) was 112 % of control and 97 % of control and 98 % of control, the T/C (endpoint: median survival time, dose: 25.0 mg/kg/injection, schedule: Q01DX009 (ip), vehicle: saline + alcohol) was 123 % of control and 97 % of control and 98 % of control and the T/C (endpoint: median survival time, dose: 50.0 mg/kg/injection, schedule: Q01DX009 (ip), vehicle: saline + alcohol) was 102 % of control and 104 % of control. For the same compound, the T/C (endpoint: median survival time, dose: 100.0 mg/kg/injection, schedule: Q01DX009 (ip), vehicle: saline + alcohol) was 119 % of control and 93 % of control and 110 % of control and the T/C (endpoint: median survival time, dose: 200.0 mg/kg/injection, schedule: Q01DX009 (ip), vehicle: saline + alcohol) was 120 % of control.
In the case of `O=CN(CCNc1ccccc1)c1ccccc1`, the T/C (endpoint: mean survival time, dose: 100.0 mg/kg/injection, schedule: Q04DX003 (ip), vehicle: saline with Tween-80) is reported as 96 % of control, the T/C (endpoint: mean survival time, dose: 200.0 mg/kg/injection, schedule: Q04DX003 (ip), vehicle: saline with Tween-80) is reported as 101 % of control and the T/C (endpoint: mean survival time, dose: 400.0 mg/kg/injection, schedule: Q04DX003 (ip), vehicle: saline with Tween-80) is reported as 95 % of control.
For `COc1cc(/C(C)=N\O)ccc1O`, the T/C [1] was 102 % of control, the T/C (endpoint: mean survival time, dose: 100.0 mg/kg/injection, schedule: Q01DX009 (ip), vehicle: other) was 107 % of control and the T/C [2] was 108 % of control. For the same compound, the T/C (endpoint: mean survival time, dose: 200.0 mg/kg/injection, schedule: Q01DX009 (ip), vehicle: other) was 102 % of control, the T/C (endpoint: mean survival time, dose: 400.0 mg/kg/injection, schedule: Q01DX001 (ip), vehicle: other) was 98 % of control and the T/C (endpoint: mean survival time, dose: 400.0 mg/kg/injection, schedule: Q01DX009 (ip), vehicle: other) was 90 % of control.
With `CC(Oc1ccccc1-c1ccccc1)C(=O)N(C)C` (stereo not drawn) the T/C (endpoint: mean survival time, dose: 12.5 mg/kg/injection, schedule: Q01DX009 (ip), vehicle: saline with Tween-80) was 93 % of control and 102 % of control, the T/C (endpoint: mean survival time, dose: 25.0 mg/kg/injection, schedule: Q01DX009 (ip), vehicle: saline with Tween-80) was 95 % of control and 100 % of control and the T/C [3] was 97 % of control and 104 % of control. The T/C [4] was 97 % of control and 104 % of control, the T/C [5] was 95 % of control and 102 % of control and the T/C [6] was 97 % of control and 104 % of control.
In the case of `COc1ccc(NC(=O)Nc2cc(C(F)(F)F)ccc2Cl)cc1`, the T/C [4] is reported as 90 % of control, the T/C [5] is reported as 98 % of control and the T/C [6] is reported as 86 % of control.
With `CN(C)c1ccc(C(Cc2ccc(Nc3ccccc3)c3ccccc23)=C2C=CC(=[N+](C)C)C=C2)cc1` the T/C (endpoint: mean survival time, dose: 3.13 mg/kg/injection, schedule: Q01DX001 (ip), vehicle: saline) was 96 % of control, the T/C (endpoint: mean survival time, dose: 6.25 mg/kg/injection, schedule: Q01DX001 (ip), vehicle: saline) was 93 % of control and the T/C (endpoint: mean survival time, dose: 12.5 mg/kg/injection, schedule: Q01DX001 (ip), vehicle: saline) was 118 % of control and 93 % of control. For the same compound, the T/C (endpoint: mean survival time, dose: 25.0 mg/kg/injection, schedule: Q01DX001 (ip), vehicle: saline) was 106 % of control.
For `CCn1cnc2c(SC3CCCC3)ncnc21`, the T/C (endpoint: mean survival time, dose: 100.0 mg/kg/injection, schedule: Q01DX001 (ip), vehicle: carboxymethylcellulose (CMC)) was 112 % of control, the T/C (endpoint: mean survival time, dose: 200.0 mg/kg/injection, schedule: Q01DX001 (ip), vehicle: carboxymethylcellulose (CMC)) was 108 % of control and the T/C (endpoint: mean survival time, dose: 400.0 mg/kg/injection, schedule: Q01DX001 (ip), vehicle: carboxymethylcellulose (CMC)) was 121 % of control.
With `Clc1ccc(CCc2ccc(Cl)cc2)cc1` the T/C [3] was 102 % of control, the T/C [4] was 98 % of control and the T/C [5] was 102 % of control.
For `C=C(C)C1CNC(C(=O)O)C1CC(=O)O` (stereo not drawn), the T/C (endpoint: mean survival time, dose: 6.25 mg/kg/injection, schedule: Q04DX003 (ip), vehicle: saline sonified) was 97 % of control, the T/C (endpoint: mean survival time, dose: 12.5 mg/kg/injection, schedule: Q04DX003 (ip), vehicle: saline sonified) was 95 % of control and the T/C (endpoint: mean survival time, dose: 25.0 mg/kg/injection, schedule: Q04DX003 (ip), vehicle: saline sonified) was 109 % of control.
For `CN(Cc1cnc2nc(N)nc(N)c2n1)c1ccc(C(=O)NC(CCC(=O)O)C(=O)NC(CC(=O)O)C(=O)O)cc1` (stereo not drawn), the T/C (endpoint: mean survival time, dose: 1.0 mg/kg/injection, schedule: Q01DX009 (ip), vehicle: sodium bicarbonate) was 100 % of control, the T/C (endpoint: mean survival time, dose: 2.0 mg/kg/injection, schedule: Q01DX009 (ip), vehicle: sodium bicarbonate) was 111 % of control and the T/C (endpoint: mean survival time, dose: 5.0 mg/kg/injection, schedule: Q01DX009 (ip), vehicle: sodium bicarbonate) was 121 % of control. For the same compound, the T/C (endpoint: mean survival time, dose: 50.0 mg/kg/injection, schedule: Q01DX009 (ip), vehicle: sodium bicarbonate) was 105 % of control.
`CS(C)=O` was tested, and the T/C (endpoint: mean survival time, dose: 46.87 mg/kg/injection, schedule: Q01DX009 (ip), vehicle: saline) was 95 % of control, the T/C (endpoint: mean survival time, dose: 93.75 mg/kg/injection, schedule: Q01DX009 (ip), vehicle: saline) was 100 % of control and 103 % of control and the T/C (endpoint: mean survival time, dose: 187.5 mg/kg/injection, schedule: Q01DX009 (ip), vehicle: saline) was 100 % of control and 101 % of control. For the same compound, the T/C (endpoint: mean survival time, dose: 375.0 mg/kg/injection, schedule: Q01DX009 (ip), vehicle: saline) was 95 % of control and 100 % of control, the T/C (endpoint: mean survival time, dose: 750.0 mg/kg/injection, schedule: Q01DX009 (ip), vehicle: saline) was 97 % of control and 100 % of control and the T/C (endpoint: mean survival time, dose: 1500.0 mg/kg/injection, schedule: Q01DX009 (ip), vehicle: saline) was 100 % of control. For the same compound, the T/C (endpoint: mean survival time, dose: 1.5 grams/kg/injection, schedule: Q01DX009 (ip), vehicle: saline) was 87 % of control and 100 % of control, the T/C (endpoint: mean survival time, dose: 3.0 grams/kg/injection, schedule: Q01DX009 (ip), vehicle: saline) was 95 % of control and the T/C (endpoint: mean survival time, dose: 6.0 grams/kg/injection, schedule: Q01DX009 (ip), vehicle: saline) was 89 % of control and 100 % of control.
For `CC(C)C[CH2][Pb]([Cl])([CH2]CC(C)C)[CH2]CC(C)C`, the T/C (endpoint: mean survival time, dose: 0.06 mg/kg/injection, schedule: Q01DX009 (ip), vehicle: saline) was 97 % of control, the T/C (endpoint: mean survival time, dose: 0.12 mg/kg/injection, schedule: Q01DX009 (ip), vehicle: saline) was 97 % of control and the T/C (endpoint: mean survival time, dose: 0.25 mg/kg/injection, schedule: Q01DX009 (ip), vehicle: saline) was 97 % of control. The T/C (endpoint: mean survival time, dose: 0.5 mg/kg/injection, schedule: Q01DX009 (ip), vehicle: saline) was 100 % of control and the T/C (endpoint: mean survival time, dose: 1.0 mg/kg/injection, schedule: Q01DX009 (ip), vehicle: saline) was 100 % of control.
`O=S1(=O)CC23C=CC=CC2(CCCC3)C1Cl` (stereo not drawn) was tested, and the T/C (endpoint: mean survival time, dose: 100.0 mg/kg/injection, schedule: Q04DX003 (ip), vehicle: other) was 94 % of control.
In the case of `CCCCC1(C(=O)OCC)SCCCS1`, the T/C (endpoint: mean survival time, dose: 50.0 mg/kg/injection, schedule: Q04DX002 (ip), vehicle: saline with Tween-80) is reported as 94 % of control, the T/C (endpoint: mean survival time, dose: 100.0 mg/kg/injection, schedule: Q04DX002 (ip), vehicle: saline with Tween-80) is reported as 105 % of control and the T/C (endpoint: mean survival time, dose: 200.0 mg/kg/injection, schedule: Q04DX002 (ip), vehicle: saline with Tween-80) is reported as 97 % of control.
For `NC(Cc1ccc([N+](=O)[O-])cc1)C(=O)O` (stereo not drawn), the T/C (endpoint: mean survival time, dose: 100.0 mg/kg/injection, schedule: Q01DX009 (ip), vehicle: saline) was 96 % of control, the T/C (endpoint: mean survival time, dose: 100.0 mg/kg/injection, schedule: Q04DX003 (ip), vehicle: saline) was 97 % of control and the T/C (endpoint: mean survival time, dose: 200.0 mg/kg/injection, schedule: Q01DX009 (ip), vehicle: saline) was 98 % of control. The T/C (endpoint: mean survival time, dose: 200.0 mg/kg/injection, schedule: Q04DX003 (ip), vehicle: saline) was 100 % of control, the T/C (endpoint: mean survival time, dose: 400.0 mg/kg/injection, schedule: Q01DX009 (ip), vehicle: saline) was 94 % of control and the T/C (endpoint: mean survival time, dose: 400.0 mg/kg/injection, schedule: Q04DX003 (ip), vehicle: saline) was 103 % of control.
With `CCOC/C(O)=C(\C#N)c1cccc(Cl)c1` the T/C (endpoint: mean survival time, dose: 25.0 mg/kg/injection, schedule: Q01DX001 (ip), vehicle: other) was 105 % of control, the T/C (endpoint: mean survival time, dose: 50.0 mg/kg/injection, schedule: Q01DX001 (ip), vehicle: other) was 102 % of control and the T/C [1] was 102 % of control. The T/C [2] was 101 % of control.
With `C=C1C(=O)OCC1(C(=O)OCC)C(=O)OCC` the T/C (endpoint: mean survival time, dose: 5.0 mg/kg/injection, schedule: Q01DX001 (ip), vehicle: saline) was 100 % of control, the T/C (endpoint: mean survival time, dose: 10.0 mg/kg/injection, schedule: Q01DX001 (ip), vehicle: saline) was 100 % of control and the T/C (endpoint: mean survival time, dose: 20.0 mg/kg/injection, schedule: Q01DX001 (ip), vehicle: saline) was 100 % of control. The T/C (endpoint: mean survival time, dose: 40.0 mg/kg/injection, schedule: Q01DX001 (ip), vehicle: saline) was 108 % of control.
For `CCCCCCCCCCCCCCCCOc1ccccc1/C=N/O`, the T/C (endpoint: mean survival time, dose: 100.0 mg/kg/injection, schedule: Q01DX009 (ip), vehicle: Klucel (hydroxypropylcellulose) (HPC)) was 87 % of control and the T/C (endpoint: mean survival time, dose: 200.0 mg/kg/injection, schedule: Q01DX009 (ip), vehicle: Klucel (hydroxypropylcellulose) (HPC)) was 89 % of control.
